Like-named read-outs stand apart in the source and are kept apart here.
Columns and labels:
human albumin = target: T1, human albumin (Homo sapiens, UniProt P02768); assay: Equilibrium dialysis binding to human albumin; settings: pH 7.4, equilibrium dialysis, read-out: equilibrium dissociation constant (Kd)
T1 construct: purchased Sigma
Protocol: (§1) To determine whether albumin is the tasquinimod binding protein in plasma, albumin was removed from human plasma using an albumin depletion kit (Thermo Scientific cat # 85160). The albumin depleted plasma was then tested for its protein binding as described above. The dissociation constant (kd) for tasquinimod binding was determined based upon equilibrium dialysis of a mixture of 4mg/ml of the species (i.e., human, bovine, and mouse) specific albumin obtained from Sigma with 2μM of ^14C-labeled tasquinimod in PBS pH 7.4 buffer using a 96-well equilibrium dialyzer™ (Harvard Apparatus, Holliston,MA).

mouse albumin = target: T2, mouse albumin (Mus musculus, UniProt P07724); assay: Equilibrium dialysis binding to mouse albumin; settings: pH 7.4, equilibrium dialysis, read-out: equilibrium dissociation constant (Kd)
T2 construct: purchased Sigma
T2 sequence (P07724 25-608): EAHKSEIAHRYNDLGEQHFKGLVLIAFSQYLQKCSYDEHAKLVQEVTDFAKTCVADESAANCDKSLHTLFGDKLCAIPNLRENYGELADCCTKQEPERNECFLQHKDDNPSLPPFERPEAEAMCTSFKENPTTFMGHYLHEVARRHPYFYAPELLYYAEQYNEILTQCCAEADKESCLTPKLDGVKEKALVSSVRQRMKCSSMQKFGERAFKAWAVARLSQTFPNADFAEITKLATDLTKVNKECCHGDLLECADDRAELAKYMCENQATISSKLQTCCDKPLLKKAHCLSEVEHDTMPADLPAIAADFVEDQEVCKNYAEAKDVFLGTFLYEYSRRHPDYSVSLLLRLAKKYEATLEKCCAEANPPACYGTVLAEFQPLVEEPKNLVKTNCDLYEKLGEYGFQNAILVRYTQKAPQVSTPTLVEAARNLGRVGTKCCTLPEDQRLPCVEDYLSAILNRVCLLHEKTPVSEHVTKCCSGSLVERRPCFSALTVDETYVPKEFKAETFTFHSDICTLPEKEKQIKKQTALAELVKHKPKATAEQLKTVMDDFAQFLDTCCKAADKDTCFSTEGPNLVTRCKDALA
Protocol: as §1

[1] = Plasma pharmacokinetics after oral gavage in nude mice bearing CWR-22Rv1 xenografts; type: in vivo, mouse; settings: for half-life: po, 5 mg/kg
Protocol: To determine the PK of tasquinimod, nude mice with growing (i.e., 200-400 mm^3) CWR-22Rv1 human prostate cancer xenografts were given ^14C-radiolabeled drug at a dose of 5 mg/kg via oral gavage and the plasma and tissue (i.e., liver, kidney, and tumor) drug concentration determined. Maximum tasquinimod plasma concentration is reached within 1 hour after oral gavage of mice, Figure 1C. After this absorption phase, the plasma concentration declines bi-exponentially as the sum of two first-order processes involving tissue distribution, with the plasma concentration remaining above 1 μM for at least 24 hours, Figure 1D. These PK results support a two-compartment model composed of a central and peripheral compartment. In the absorption phase, the apparent volume of distribution is low (i.e., 0.31 L/kg) but is still more than 3 times the total volume of the blood (i.e., 0.1 L/kg) and is equal to the extracellular body fluid (i.e. 0.2 L/kg) plus the total volume of blood in a mouse (i.e., […]).
Male nude mice bearing 200-300mm^3 CWR-22Rv1 cancers were given ^14C-labeled tasquinimod at a dose of 5 mg/kg via oral gavage. At times ranging from 30 min to 24 hour, groups of 4-6 mice were anaesthetized with ketamine and 1 ml of heparinized blood collected by cardiac puncture, followed by subsequent cardiac perfusion of saline to remove blood associated drug. An aliquot of liver, kidney, and cancer was removed, weighed and then homogenized. The radioactivity in 10 μL aliquots of tissue homogenates and blood plasma was determined using a liquid scintillation counter and used to calculate the total amount of tasquinimod plus its metabolites per gram of tissue or per ml of blood. The remaining sample volume was deproteinated with acetonitrile and the radioactivity of an aliquot of the supernatant determined and the remaining supernatant lyophilized, resuspended initially with 0.1mL dimethyl sulfoxide and diluted by the addition of 0.9mL deionized water prior to injection into the HPLC. The HPLC system consisted of Waters pumps using a Waters gradient controller to deliver mobile phase at a flow rate of 1mL per minute using a Supelcosil ABZ+ C18 column that is 150mm long by 4.6mm diameter and has 5μm particle size. The metabolites were separated using a linear gradient in which the starting mobile phase was 35% acetonitrile: 65% water: 0.1% Trifluoroacetic acid (TFA) increasing to 50% acetonitrile: 50% water: 0.1%TFA over 25 minutes, and then increased rapidly to 98% acetonitrile: 2% water: 0.1%TFA and held until 33 minutes before it is returned to the initial conditions for the next run. Fractions were collected and the radioactivity determined by scintillation counting. As controls, the individual elution time of non-radiolabeled standard solutions of the various tasquinimod metabolites was determined using UV absorption at 215nm. The results were expressed as concentration based upon tissue volume, assuming 1gram wet weight equals 1ml, or normalized to tissue vascular volume.

[2] = tested on: CWR-22Rv1 prostate cancers; assay: Vascular volume, albumin-Evans Blue accumulation (EPR effect) and growth in CWR-22Rv1 bearing mice treated with tasquinimod; type: in vivo, mouse
Protocol: To evaluate the potential importance of an EPR effect for enhancing tumor specific tasquinimod uptake and thus anti-cancer potency, albumin retention in plasma and normal tissue vs. prostate cancer was determined. To do this, nude mice bearing CWR-22Rv1 prostate cancers were injected intravenously (IV) with Evans Blue (EB) at a dose (10mg/kg) so that all of the dye is initially bound to albumin within the blood. Twenty-four hours later, the amount of albumin-EB complex retained in plasma vs. accumulated in liver, kidney, or CWR-22Rv1 prostate cancers determined. The results are expressed as concentration of extractable albumin-EB in plasma vs. the specified tissue. These studies document that prostate cancers accumulate a concentration of albumin-EB that is equal to that in the plasma by 24 hours, Figure 3C. When normalized to vascular volume, the albumin-EB accumulation by prostate cancers is more than two fold greater (p<0.05) compared to liver and more than 8 fold greater (p<0.05) compared to kidney, Figure 3C. […] Such continuous treatment with tasquinimod decreased the vascular volume within the cancers by nearly half (p<0.05), Figure 3C. […]
Tissue vascular volumes for liver, kidney, and CWR-22Rv1 cancers were determined previously via intravenous infusion of^51 Chromium (Perkin Elmer, Shelton, CT) labeled red blood cells and the result expressed as percent vascular volume as described previously.
EPR effect was determined using Evans Blue as described previously with the modification that 24 hours after the albumin in the blood of tumor bearing nude mice was labeled via IV injection of Evans Blue (EB) at a dose of 10mg/kg, the animals were anesthetized, blood collected, and then animals were perfused with saline to remove blood from the host tissues before harvesting liver, kidney, and prostate cancer xenograft tissue. The results are expressed as the concentration of EB-labeled albumin retained in the blood or specified tissue.

[3] = cited from earlier work

T1 sequence (P02768 25-609): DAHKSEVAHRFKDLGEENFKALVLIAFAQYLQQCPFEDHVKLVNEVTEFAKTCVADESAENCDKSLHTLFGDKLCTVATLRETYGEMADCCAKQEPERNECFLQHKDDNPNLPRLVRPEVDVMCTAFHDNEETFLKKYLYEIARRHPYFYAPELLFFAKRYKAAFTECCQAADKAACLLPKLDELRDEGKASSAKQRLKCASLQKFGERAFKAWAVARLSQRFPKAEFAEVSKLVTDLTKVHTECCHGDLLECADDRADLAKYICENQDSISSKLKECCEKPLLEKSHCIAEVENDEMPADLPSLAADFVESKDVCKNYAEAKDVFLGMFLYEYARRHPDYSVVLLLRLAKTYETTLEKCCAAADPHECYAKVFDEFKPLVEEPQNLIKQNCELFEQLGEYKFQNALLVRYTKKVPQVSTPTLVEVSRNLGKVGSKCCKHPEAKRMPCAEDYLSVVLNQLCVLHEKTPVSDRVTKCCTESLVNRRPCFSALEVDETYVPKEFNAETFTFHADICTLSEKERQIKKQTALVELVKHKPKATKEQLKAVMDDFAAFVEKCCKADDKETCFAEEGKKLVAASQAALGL

COc1cccc2c1c(O)c(C(=O)N(C)c1ccc(C(F)(F)F)cc1)c(=O)n2C [Tasquinimod]
Kd (human albumin): 24 ± 4 µM | Kd (mouse albumin): 16 ± 3 µM | Cmax for protein free-tasquinimod ([1]; 5 mg/kg oral): ~ 0.24 μM | time plasma concentration remains above 1 μM ([1]; 5 mg/kg oral gavage, nude mice): at least 24 hours | increase in plasma elimination half-life on ketoconazole co-treatment ([1]; 5 mg/kg oral tasquinimod with ketoconazole 25mg/kg/day oral): more than 8 fold | apparent volume of distribution ([1]; absorption phase, 5 mg/kg oral): 0.31 L/kg | fraction of blood drug located in the plasma and not in blood cells ([1]; fractionated whole blood, 4hours post oral dosing): > 98% | Tmax ([1]; male, mouse, plasma, 5 mg/kg oral gavage, nude mice, read-out: time to maximum plasma concentration): ≤ 1 h | half-life ([1]; male, nude, mouse, plasma, 5 mg/kg oral, read-out: half-life of α-distribution phase (converted)): 3.2 h | half-life ([1]; male, nude, mouse, plasma, 5 mg/kg oral, read-out: β-elimination phase half-life): > 10 h | Cmax ([1]; male, nude, mouse, plasma, 5 mg/kg oral, read-out: total plasma Cmax): ~12 µM | Percent Vascular Volume (Prostate Cancer) ([2]; 10mg/kg/day for 30 days): 1.4±0.4 | decrease of vascular volume within the cancers ([2]; 10 mg/kg/day for a month): nearly half | inhibition in cancer growth ([2]; CWR-22Rv1, 10 mg/kg/day for a month): greater than 80% | blood (plasma) level maintained ([3]; chronic daily oral dosing, 1 mg (0.5-1 mg/day), clinical trials): ~ 0.5 μM | plasma half-life ([3]; clinical trials): 40 ± 16 h | plasma levels at which systemic anti-cancer potency occurs ([3]; clinical trials): 0.5 to 1 µM | bioavailability and oral absorption ([3]; daily dose as liquid or gelatin capsule): excellent

Source: article PMC4226669, “Anti-cancer potency of tasquinimod is enhanced via albumin-binding facilitating increased uptake in the tumor microenvironment” (Oncotarget, 2014)
